Experimental data as given in patent US11820975B2, “Human blood brain barrier model” (National Research Council of Canada, priority 2014, dated 2023).

Legend:
AF-iPSC-BECs [1] = format: cell-based, human; settings: BBB model cultured with the agent; ACMx2 for 24 hours; FIG. 7A-B
AF-iPSC-BECs [2] = format: in vitro ADME, human; settings: AF-iPSC-BECs vs. HBMECs (Cell Systems), FIG. 6C
AF-iPSC-derived neurons = format: cell-based, human

Structure (SMILES): C[C@]12CCC(=O)C=C1CC[C@@H]1[C@@H]2[C@@H](O)C[C@@]2(C)[C@H]1CC[C@]2(O)C(=O)CO [hydrocortisone]
- Change in TEER value (AF-iPSC-BECs [1]): significant increase

Structure (SMILES): O=C([O-])c1ccccc1-c1c2ccc(=O)cc-2oc2cc([O-])ccc12.[Na+].[Na+] [Sodium fluorescein]
- Sodium fluorescein permeability of AF-iPSC-BECs compared with HBMECs (AF-iPSC-BECs [2]): significantly lower

Structure (SMILES): NC1=N[C@H](O)[C@H]2[C@H]3O[C@]4(O)O[C@@H]([C@@H](O)[C@@]2(N1)[C@@H]4O)[C@]3(O)CO [TTX, tetrodotoxin]
- Effect on spiking activity (AF-iPSC-derived neurons): eliminated spiking activity
